Measured values published in patent US7947668B2, “Aminoalkyl sterol compounds having an anti-tumoral and neuroprotective activity” (Institut National de la Sante et de la Recherche Medicale, priority 2002, dated 2011).

What was measured:
P19 cells = test: Neuritogenesis on mouse P19 cells; assay type: cell-based; conditions: dose of 10 nM; after 12 hours of treatment
Experimental: The P19 cells are derived from a mouse embryonic carcinoma. They are pluripotent cells, which can change into neurones or into glial cells by treatment with retinoic acid (J. Cell. Biol. 1982 August, 94 (2): pp. 253-262) and can differentiate into muscle cells in the presence of dimethyl sulfoxide (Nature 1982-9 September, 299(58 79): pp. 165-167).
The P19 cells are cultured in the presence of an “RPMI 1640” culture medium sold by the company “Gibco BRL”, this medium being supplemented with 2 mM of glutamine and 4% by weight of fetal calf serum. They are inoculated at low density (10 000 cells per 60-mm well). The P19 cells are treated with the compound of example 6; they are then observed by phase-contrast microscopy. […]

PC12 cells = test: Neuritogenesis on PC12 cells; assay type: cell-based; conditions: dose of 10 nM, action time 36 hours
Experimental: The PC12 cells were cultured at an initial density of 1.5×10^5 cells/ml in RPMI 1640 medium supplemented with 10% fetal calf serum and 5% horse serum. The base of the culture dishes is treated with a 0.1 wt % polylysine or collagen solution in order to cause adhesion of the cells. The supernatant cells are removed after 12 hours and then treated with or without nerve growth factor (NGF) at 10 ng/ml, with or without the compound of example 6 or of example 7. The cells are observed by phase-contrast microscopy.
The PC12 cells treated by means of the compound of example 6 were treated at a dose of 10 nM, the action time of the compound being 36 hours.

[1] = test system: C57BL/6 mouse spleen monocytes; test: Dendritogenesis on C57BL/6 mouse spleen monocytes; assay type: cell-based; conditions: dose of 1 nM, 36 hours after the start of action
Experimental: 1) On C57BL/6 Mouse Spleen Monocytes
5-week-old mice are sacrificed by cervical dislocation. They are then dissected. The spleens are removed under sterile conditions and then placed in a cold solution (4° C.) containing serum-free culture medium supplemented with antibiotics (streptomycin and penicillin). The spleens are ground in a sterile fume cupboard and then filtered through a 100 μm filter. The eluate is recovered and then centrifuged at 1000 rpm for 5 minutes at 4° C. The cell pellet is resuspended in phosphate-buffered saline (PBS) solution containing […], the purpose of which is to lyze the red blood cells. The suspension is centrifuged at 1000 rpm and the cells are then resuspended in PBS. The washing operation is performed twice. The final resuspension is performed in whole culture medium, and the cells are counted and distributed into six-well dishes at a density of 40 000 cells/ml. Four hours later, the adhering cells are washed vigorously with PBS in order to remove the cells that might remain attached to the adhering cells or to the culture dish.
The conversion was obtained with a dose of 1 nM, the photograph having been taken 36 hours after the start of action of the product. The test product is that of example 9. The appearance of cellular extensions is observed, which is one of the main characteristics of activated dendritic cells.

U-937 cells = test: Production of IL-12p70 and IL-10 by the dendritic cells (ELISA); assay type: cell-based, human; conditions: treatments extending over a period of two weeks
Experimental: The culture supernatants are frozen at a temperature of −80° C. until the time of testing for the presence of cytokines. The presence of IL-12p70 and IL-10 is measured using ELISA kits obtained from “Endogen” (Woburn, Mass., USA).
This phenomenon continues for the two weeks of treatment.

With CC(C)CCC[C@@H](C)[C@H]1CC[C@H]2[C@@H]3C[C@@H](NCCCCNCCCN)[C@@]4(O)C[C@@H](O)CC[C@]4(C)[C@H]3CC[C@]12C [Example 4, cholestane-3β,5α-diol-6β-N-[1-N1-(3-aminopropyl)butane-1,4-diamine]] the “change in morphology of P19 cells toward dendrites” value (P19 cells) was “same observations”.

In the case of CC(C)CCC[C@@H](C)[C@H]1CC[C@H]2[C@@H]3C[C@@H](NCCCNCCCCNCCCN)[C@@]4(O)C[C@@H](O)CC[C@]4(C)[C@H]3CC[C@]12C [Example 5, cholestane-3β,5α-diol-6β-N-[N,N′-bis(3-aminopropyl)butane-1,4-diamine]], the “change in morphology of P19 cells toward dendrites” value (P19 cells) is reported as “same observations”.

In the case of CC(C)CCC[C@@H](C)[C@H]1CC[C@H]2C3=C[C@@H](NCCCCNCCCN)[C@@]4(O)C[C@@H](O)CC[C@]4(C)[C@H]3CC[C@]12C [Example 6, cholest-7-ene-3β,5α-diol-6β-N-[1-N-1-(3-aminopropyl)butane-1,4-diamine]], the “change in morphology of PC12 cells toward dendrites” value (PC12 cells) is reported as “formation of dendrites” and the “change in morphology of P19 cells toward dendrites” value (P19 cells) is reported as “formation of dendrites”.

For CC(C)CCC[C@@H](C)[C@H]1CC[C@H]2C3=C[C@@H](NCCCNCCCCNCCCN)[C@@]4(O)C[C@@H](O)CC[C@]4(C)[C@H]3CC[C@]12C [Example 7, cholest-7-ene-3β,5α-diol-6β-N-[N,N′-bis(3-aminopropyl)butane-1,4-diamine]], the “change in morphology of P19 cells toward dendrites” value (P19 cells) was “same observations”.

For CC[C@H](CC[C@@H](C)[C@H]1CC[C@H]2[C@@H]3C[C@@H](NCCCNCCCCNCCCN)[C@@]4(O)C[C@@H](O)CC[C@]4(C)[C@H]3CC[C@]12C)C(C)C [Example 42, sitostane-3β,5α-diol-6β-N-[N,N′-bis(aminopropyl)butane-1,4-diamine]], the “change in morphology of P19 cells toward dendrites” value (P19 cells) was “same observations”.

With CC(C)[C@H](C)CC[C@@H](C)[C@H]1CC[C@H]2[C@@H]3C[C@@H](NCCCNCCCCNCCCN)[C@@]4(O)C[C@@H](O)CC[C@]4(C)[C@H]3CC[C@]12C [Example 43, campestane-3β,5α-diol-6β-N-[N,N′-bis(aminopropyl)butane-1,4-diamine]] the “change in morphology of P19 cells toward dendrites” value (P19 cells) was “same observations”.

CC[C@H](CC[C@@H](C)[C@H]1CC[C@H]2[C@@H]3C[C@@H](NCCCCNCCCN)[C@@]4(O)C[C@@H](O)CC[C@]4(C)[C@H]3CC[C@]12C)C(C)C [Example 44, sitostane-3β,5α-diol-6β-N-[1-N1-(3-aminopropyl)butane-1,4-diamine]] was tested, and the “change in morphology of P19 cells toward dendrites” value (P19 cells) was “same observations”.

With CC(C)[C@H](C)CC[C@@H](C)[C@H]1CC[C@H]2[C@@H]3C[C@@H](NCCCCNCCCN)[C@@]4(O)C[C@@H](O)CC[C@]4(C)[C@H]3CC[C@]12C [Example 45, campestane-3β,5α-diol-6β-N-[1-N-1-(3-aminopropyl)butane-1,4-diamine]] the “change in morphology of P19 cells toward dendrites” value (P19 cells) was “same observations”.

With NCCc1c[nH]cn1 [amine, 2-(1H-imidazol-4-yl)ethylamine, reference compound] the “morphological changes on the mouse monocytes, conversion into dendritic cells” value (“morphological changes” for short) [1] was “ineffective”.

With CC(C)CCC[C@@H](C)[C@H]1CC[C@H]2[C@@H]3CC=C4C[C@@H](O)CC[C@]4(C)[C@H]3CC[C@]12C [cholesterol, reference compound] the “morphological changes” value [1] was “ineffective”.

In the case of CC(C)CCC[C@@H](C)[C@H]1CC[C@H]2[C@@H]3C[C@@H]4O[C@@]45C[C@@H](O)CC[C@]5(C)[C@H]3CC[C@]12C [epoxy-cholesterol derivative, 5,6-α-epoxycholestan-3β-ol, reference compound], the “morphological changes” value [1] is reported as “ineffective”.

“GM-CSF: cytokine used with IL-4 to differentiate monocytes into dendritic cells” was tested, and the “morphological changes” value [1] was “ineffective”.

“campestane-3β,5α-diol-6β-N-{[2-(1H-imidazol-4-yl)ethyl]ethylamine} [Example 47]” was tested, and the “transcription/production of IL-10” value (U-937 cells) was “same observations”.

In the case of “sitostane-3β,5α-diol-6β-N-{[2-(1H-imidazol-4-yl)ethyl]ethylamine} [Example 46]”, the “transcription/production of IL-10” value (U-937 cells) is reported as “same observations”.

B1: IL-4: interleukin-4, cytokine (protein, UniProt P05112 25-153, looked up)
Interleukin-4: HKCDITLQEIIKTLNSLTEQKTLCTELTVTDIFAASKNTTEKETFCRAATVLRQFYSHHEKDTRCLGATAQQFHRHKQLIRFLKRLDRNLWGLAGLNSCPVKEANQSTLENFLERLKTIMREKYSKCSS
B1 was tested, and the “morphological changes” value [1] was “ineffective”.
